Laboratory results: ChEMBL document CHEMBL5321281, “Synthesis and Biological Evaluation of Heterocyclic Ring-Fused 20(S)-Protopanaxadiol Derivatives as Potent Antiosteoporosis Agents” (J Med Chem, 2023)

Legend:
[1] = test system: BMMC; assay: Anti-osteoclastogenic activity in C57/BL6 mouse BMMC cells assessed as inhibition of RANKL-induced osteoclast differentiation at 1 uM incubated for 5 to 7 days in presence of M-CSF by TRAP staining based microscopic analysis relative to control; format: functional; conditions: time 5-7 day
[2] = test system: BMMC; assay: Anti-osteoclastogenic activity in C57/BL6 mouse BMMC cells assessed as inhibition of RANKL-induced osteoclast differentiation at 5 uM incubated for 5 to 7 days in presence of M-CSF by TRAP staining based microscopic analysis relative to control; format: functional; conditions: time 5-7 day
[3] = test system: BMMC; assay: Cytotoxicity against C57/BL6 mouse BMMC cells assessed as reduction in cell viability at 10 uM incubated for 24 hrs by CCK-8 assay; format: toxicity, cell-based
[4] = test system: BMMC; assay: Anti-osteoclastogenic activity in C57/BL6 mouse BMMC cells assessed as inhibition of RANKL-induced osteoclast differentiation at 0.1 uM incubated for 5 to 7 days in presence of M-CSF by TRAP staining based microscopic analysis relative to control; format: functional; conditions: time 5-7 day
[5] = test system: BMMC; assay: Anti-osteoclastogenic activity in C57/BL6 mouse BMMC cells assessed as inhibition of RANKL-induced osteoclast differentiation at 0.01 uM incubated for 5 to 7 days in presence of M-CSF by TRAP staining based microscopic analysis relative to control; format: functional; conditions: time 5-7 day
[6] = test system: BMMC; assay: Anti-osteoclastogenic activity in C57/BL6 mouse BMMC cells assessed as inhibition of RANKL-induced osteoclast differentiation incubated for 5 to 7 days in presence of M-CSF by TRAP staining based microscopic analysis relative to control; format: functional, cell-based

For `CC(C)=CCC[C@](C)(O)[C@H]1CC[C@]2(C)[C@@H]1[C@H](O)C[C@@H]1[C@@]3(C)Cc4cncnc4C(C)(C)[C@@H]3CC[C@]12C`, the inhibition at 1 µM [1] was 95.3%, the inhibition at 5 µM [2] was 100% and the Activity [3] was “>= 100%”. It also gave an inhibition at 0.1 µM [4] of 51.9%.
`CC(C)=CCC[C@](C)(O)[C@H]1CC[C@]2(C)[C@@H]1[C@H](O)C[C@@H]1[C@@]3(C)Cc4nonc4C(C)(C)[C@@H]3CC[C@]12C` was tested, and the inhibition at 1 µM [1] was 18.8%, the inhibition at 5 µM [2] was 64.2% and the Activity [3] was “>= 100%”.
In the case of `CC(C)=CCC[C@](C)(O)[C@H]1CC[C@]2(C)[C@@H]1[C@H](O)C[C@@H]1[C@@]3(C)Cc4cnc(-c5ccccc5)nc4C(C)(C)[C@@H]3CC[C@]12C`, the inhibition at 1 µM [1] is reported as 45.5%, the Activity [3] is reported as “>= 100%” and the inhibition at 0.1 µM [4] is reported as 0%.
For `CC(=O)O[C@@H]1C[C@@H]2[C@@]3(C)Cc4cnc(C)nc4C(C)(C)[C@@H]3CC[C@@]2(C)[C@]2(C)CC[C@H]([C@@](C)(O)CCC=C(C)C)[C@@H]12`, the Activity [3] was “>= 100%”, the inhibition at 0.1 µM [4] was 62.2% and the inhibition at 0.01 µM [5] was 6.68%.
`CCOc1ncc2c(n1)C(C)(C)[C@@H]1CC[C@]3(C)[C@H](C[C@@H](O)[C@@H]4[C@@H]([C@@](C)(O)CCC=C(C)C)CC[C@]43C)[C@@]1(C)C2` was tested, and the inhibition at 1 µM [1] was 94.1%, the Activity [3] was 86.9% and the inhibition at 0.1 µM [4] was 45.7%.
`CC(C)=CCC[C@](C)(O)[C@H]1CC[C@]2(C)[C@@H]1[C@H](O)C[C@@H]1[C@@]3(C)Cc4cnoc4C(C)(C)[C@@H]3CC[C@]12C` was tested, and the inhibition at 1 µM [1] was 3.2%, the inhibition at 5 µM [2] was 71.5% and the Activity [3] was “>= 100%”.
`CC(C)=CCC[C@](C)(O)[C@H]1CC[C@]2(C)[C@@H]1[C@@H](O)C[C@@H]1[C@@]3(C)Cc4cnc(C)nc4C(C)(C)[C@@H]3CC[C@]12C` was tested, and the Activity [3] was “>= 100%”, the inhibition at 0.1 µM [4] was 84.4% and the inhibition at 0.01 µM [5] was 0%.
In the case of `Cc1ncc2c(n1)C(C)(C)[C@@H]1CC[C@]3(C)[C@H](C[C@@H](O)[C@@H]4[C@@H]([C@@](C)(O)CCCC(C)C)CC[C@]43C)[C@@]1(C)C2`, the Activity [3] is reported as “>= 100%”, the inhibition at 0.1 µM [4] is reported as 96% and the inhibition at 0.01 µM [5] is reported as 9.2%.
`CC(C)=CCC[C@](C)(O)[C@H]1CC[C@]2(C)[C@@H]1[C@H](O)C[C@@H]1[C@@]3(C)Cc4cnn(-c5ccccc5)c4C(C)(C)[C@@H]3CC[C@]12C` was tested, and the inhibition at 1 µM [1] was 0%, the inhibition at 5 µM [2] was 12.9% and the Activity [3] was “>= 100%”.
For `CC(C)=CCC[C@](C)(O)[C@H]1CC[C@]2(C)[C@@H]1[C@H](O)C[C@@H]1[C@@]3(C)CC[C@H](O)C(C)(C)[C@@H]3CC[C@]12C`, the inhibition at 1 µM [1] was 10.2%, the inhibition at 5 µM [2] was 63.9% and the Activity [3] was “>= 100%”. The IC50 [6] was 11.8 µM.
With `CC(C)=CCC[C@](C)(O)[C@H]1CC[C@]2(C)[C@@H]1C(=O)C[C@@H]1[C@@]3(C)Cc4cnc(C)nc4C(C)(C)[C@@H]3CC[C@]12C` the Activity [3] was “>= 100%”, the inhibition at 0.1 µM [4] was 75.8% and the inhibition at 0.01 µM [5] was 8.68%.
For `COc1ncc2c(n1)C(C)(C)[C@@H]1CC[C@]3(C)[C@H](C[C@@H](O)[C@@H]4[C@@H]([C@@](C)(O)CCC=C(C)C)CC[C@]43C)[C@@]1(C)C2`, the inhibition at 1 µM [1] was 93.7%, the Activity [3] was “>= 100%” and the inhibition at 0.1 µM [4] was 52.6%.
For `CC(C)=CCC[C@](C)(O)[C@H]1CC[C@]2(C)[C@@H]1/C(=N/O)C[C@@H]1[C@@]3(C)Cc4cnc(C)nc4C(C)(C)[C@@H]3CC[C@]12C`, the Activity [3] was “>= 100%”, the inhibition at 0.1 µM [4] was 61.1% and the inhibition at 0.01 µM [5] was 0%.
For `CC(C)=CCC[C@](C)(O)[C@H]1CC[C@]2(C)[C@@H]1[C@H](O)C[C@@H]1[C@@]3(C)Cc4cn[nH]c4C(C)(C)[C@@H]3CC[C@]12C`, the inhibition at 1 µM [1] was 41.2%, the inhibition at 5 µM [2] was 84.8% and the Activity [3] was “>= 100%”.
`CC(C)=CCC[C@](C)(O)[C@H]1CC[C@]2(C)[C@@H]1[C@H](O)C[C@@H]1[C@@]3(C)Cc4cnc(N)nc4C(C)(C)[C@@H]3CC[C@]12C` was tested, and the inhibition at 1 µM [1] was 100%, the Activity [3] was “>= 100%” and the inhibition at 0.1 µM [4] was 51.2%.
For `CC(C)=CCC[C@](C)(O)[C@H]1CC[C@]2(C)[C@@H]1[C@H](O)C[C@@H]1[C@@]3(C)Cc4cnc(C)nc4C(C)(C)[C@@H]3CC[C@]12C`, the inhibition at 1 µM [1] was 100%, the Activity [3] was “>= 100%” and the inhibition at 0.1 µM [4] was 96.8%. For the same compound, the inhibition at 0.01 µM [5] was 34.5%.
With `CC(C)=CCC[C@](C)(O)[C@H]1CC[C@]2(C)[C@@H]1[C@H](O)C[C@@H]1[C@@]3(C)Cc4nccnc4C(C)(C)[C@@H]3CC[C@]12C` the inhibition at 1 µM [1] was 43.7%, the inhibition at 5 µM [2] was 100% and the Activity [3] was “>= 100%”.
With `CC(C)=CC/C=C(\C)[C@H]1CC[C@]2(C)[C@@H]1[C@H](O)C[C@@H]1[C@@]3(C)Cc4cnc(C)nc4C(C)(C)[C@@H]3CC[C@]12C` the Activity [3] was “>= 100%”, the inhibition at 0.1 µM [4] was 96.8% and the inhibition at 0.01 µM [5] was 27.4%.
For `CCc1ncc2c(n1)C(C)(C)[C@@H]1CC[C@]3(C)[C@H](C[C@@H](O)[C@@H]4[C@@H]([C@@](C)(O)CCC=C(C)C)CC[C@]43C)[C@@]1(C)C2`, the inhibition at 1 µM [1] was 100%, the Activity [3] was “>= 100%” and the inhibition at 0.1 µM [4] was 90.4%.
